Experimental findings from patent US10899699B2, “Vinylogous phenethylamines as neurotransmitter releasers” (RESEARCH TRIANGLE INSTITUTE, priority 2016, dated 2021) are described below.

One data set has as its target T1, 5-HT2C (Homo sapiens, UniProt P28335).
T1 construct: expressed in transfected cells
T1 sequence (P28335 33-458): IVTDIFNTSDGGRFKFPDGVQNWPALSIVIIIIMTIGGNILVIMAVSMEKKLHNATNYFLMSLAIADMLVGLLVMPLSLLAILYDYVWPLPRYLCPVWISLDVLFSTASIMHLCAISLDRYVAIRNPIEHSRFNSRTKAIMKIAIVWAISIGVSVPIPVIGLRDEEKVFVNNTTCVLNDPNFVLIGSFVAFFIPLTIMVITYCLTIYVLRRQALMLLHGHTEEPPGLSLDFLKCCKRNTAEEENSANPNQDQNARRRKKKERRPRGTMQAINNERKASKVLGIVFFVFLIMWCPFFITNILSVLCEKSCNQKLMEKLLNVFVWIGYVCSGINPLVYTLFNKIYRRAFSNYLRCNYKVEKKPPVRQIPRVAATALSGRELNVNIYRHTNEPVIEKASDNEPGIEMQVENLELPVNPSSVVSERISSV
Nature of the data set: 5-HT2C calcium mobilization assay in HEK293 cells (agonist activity). In kind it is cell-based. Particulars: HEK293; for EC50: calcium mobilization, agonist, read-out: 5-HT2C EC50, (nM ± SEM). Here is the method:
(§1) BAT activity was measured using synaptosomes prepared from rat brain homogenates according to the protocol developed by Rothman and co-workers (Rothman, et al., Eur. J. Pharmacol. 2002, 447(1), 51). Compounds were first screened in uptake inhibition and release assays to determine the exact mode of drug action. Compounds active in both assays are releasers while compounds active only in the uptake inhibition assay are uptake inhibitors. Active compounds were then fully characterized by running 8-point concentration response curves in the assay corresponding to their mechanism of action. Substrate reversal experiments were conducted to validate substrate activity. The analogs were also tested for agonist activity at the serotonin-2 receptor subtypes (5-HT2A, 5-HT2B, 5-HT2C) using in vitro calcium mobilization assays in transfected HEK293 cells as previously described. These receptors are associated with the pharmacology of abused drugs, as 5-HT2A agonists are thought to be hallucinogenic while […] are associated with valvular heart disease and pulmonary hypertension; activity at these receptors would be considered off-target liabilities. On the other hand, agonists at 5-HT2C may be beneficial as potential pharmacotherapies for drug abuse and appetite suppression.
(§2) HEK293 cells stably expressing the human 5-HT2A receptor were used. The day before the assay, cells were plated into 96-well black-walled assay plates at 40,000 cells/well in DMEM-HG supplemented with 10% fetal bovine serum, 100 units of penicillin and streptomycin, and 15 mM HEPES. The cells were incubated overnight at 37° C., 5% CO2. Prior to the assay, Calcium 5 dye (Molecular Devices) was reconstituted according to the manufacturer instructions. The reconstituted dye was diluted 1:40 in pre-warmed (37° C.) assay buffer (1×HBSS, 20 mM HEPES, 2.5 mM probenecid, pH 7.4 at 37° C.). Growth medium was removed and the cells were gently washed with 100 μL of pre-warmed (37° C.) assay buffer. The cells were incubated for 45 minutes at 37° C., 5% CO2 in 200 μL of the diluted Calcium 5 dye. Serial dilutions of the test compounds were prepared in 1% DMSO/assay buffer, aliquoted into 96-well polypropylene plates, and warmed to 37° C. After the dye-loading incubation period, the cells were pre-treated with 25 μL of 9% DMSO/assay buffer and incubated for 15 min at 37° C. After the pre-treatment incubation period, the plate was read with a FlexStation® II (Molecular Devices). Calcium-mediated changes in fluorescence were monitored every 1.52 seconds over a 60 second time period, with the FlexStation® II adding 25 μL of test compound dilutions at the 19 second time point (excitation at 485 nm, detection at 525 nm). Peak kinetic reduction (SoftMax, Molecular Devices) relative fluorescent units (RFU) were plotted against compound concentration. Data were fit to the appropriate three-parameter logistic curve to generate EC50 values (GraphPad Prism 6.0, GraphPad Software, Inc., San Diego, Calif.). 5-HT2B and 5-HT2C calcium mobilization assays were run in the same manner with stable 5-HT2B and 5-HT2C HEK293 cells except that 35,000 cells/well were used instead of 40,000 cells/well.
Background: Calcium assays in cells follow changes in intracellular calcium, usually with a dye or a luminescent sensor.

Data set [1] has as its target T2, Dopamine Transporter (DAT) (Rattus norvegicus, UniProt P23977).
T2 construct: Synaptosomes were prepared from rat striatum for the DAT assays; from tissue; host or cells: rat striatum synaptosomes
Nature of the data set: DAT release assay, rat brain synaptosomes. In kind it is biochemical. Particulars: for EC50: release of [3H]MPP+ from rat striatum synaptosomes, mean±SD (n=3). Here is the method: as §1, with “Compounds active in both assays are releasers while compounds active only in the uptake inhibition assay are uptake inhibitors. Active compounds were then fully characterized by running 8-point concentration response curves in the assay corresponding to their mechanism of action.” left out
(§3) All animal studies were conducted in facilities fully accredited by the Association for the Assessment and Accreditation of Laboratory Animal Care (AAALAC) and experiments were performed in accordance with the Institutional Care and Use Committee (IACUC) of the National Institute on Drug Abuse Intramural Research Program (NIDA IRP). Rats were euthanized by CO2 narcosis, and brains were processed to yield synaptosomes as previously described (Rothman, R B, et al., Eur. J. Pharmacol. 2002, 447(1), 51.). Synaptosomes were prepared from rat striatum for the DAT assays, whereas synaptosomes were prepared from whole brain minus striatum and cerebellum for the NET and SERT assays.
(§4) For release assays, 9 nM [^3H]1-methyl-4-phenylpyridinium ([^3H]MPP+) was used as the radiolabeled substrate for DAT and NET, while 5 nM [^3H]5-HT was used as a substrate for SERT. All buffers used in the release assay methods contained 1 μM reserpine to block vesicular uptake of substrates. The selectivity of release assays was optimized for a single transporter by including unlabeled blockers to prevent the uptake of [^3H]MPP+ or [^3H]5-HT by competing transporters. Synaptosomes were preloaded with radiolabeled substrate in Krebs-phosphate buffer for 1 h (steady state). Release assays were initiated by adding 850 μL of preloaded synaptosomes to 150 μL of test drug. Release was terminated by vacuum filtration and retained radioactivity was quantified as described for uptake inhibition. Concentration-response curves were generated to yield EC50 values.
(§5) Substrate reversal experiments were conducted to validate substrate activity. The releasing ability of test compounds was tested at an EC80 concentration in the absence and presence of an uptake inhibitor (250 nM […] for DAT, 166 nM desipramine for NET, 100 nM fluoxetine for SERT).

For a further data set, the target named is T3, human 5-HT2A receptor (Homo sapiens, UniProt P28223).
T3 construct: expressed in transfected cells
Nature of the data set: 5-HT2A calcium mobilization assay in HEK293 cells (agonist activity). Format: cell-based. Particulars: for EC50 / Emax: calcium mobilization; for Emax: efficacy. Here is the method:
as §1, §2

The target of data set [2] is T4, Serotonin Transporter (SERT) (Rattus norvegicus, UniProt P31652).
T4 construct: synaptosomes were prepared from whole brain minus striatum and cerebellum for the NET and SERT assays; from tissue; host or cells: rat whole brain minus striatum and cerebellum, synaptosomes
Nature of the data set: SERT release assay, rat brain synaptosomes. Format: biochemical. Particulars: for EC50: release of [3H]5-HT from rat brain synaptosomes, mean±SD (n=3). Here is the method: as §1, with “Compounds active in both assays are releasers while compounds active only in the uptake inhibition assay are uptake inhibitors. Active compounds were then fully characterized by running 8-point concentration response curves in the assay corresponding to their mechanism of action.” left out
as §3, §4, §5

Data set [3] concerns the target Norepinephrine Transporter (NET) (Rattus norvegicus, UniProt Q9WTR4). In kind it is biochemical. Particulars: read-out: EC50, (nM ± SD) NET; release of [3H]MPP+ from rat brain synaptosomes; mean±SD (n=3).
The target of a further data set is T5, 5-HT2B (Homo sapiens, UniProt P41595).
T5 construct: expressed in transfected cells
Nature of the data set: 5-HT2B calcium mobilization assay in HEK293 cells (agonist activity). In kind it is cell-based. Particulars: calcium mobilization, agonist, HEK293; read-out: 5-HT2B EC50, (nM ± SEM). Here is the method: as §1, §2

Where [4] appears, read: agonist, HEK293, read-out: 5-HT2A EC50, (nM ± SEM).

Where a name gives a salt, the structure may show the parent alone. Read-outs that look alike come from different tables or passages of the source.

T3 sequence (P28223 whole entry): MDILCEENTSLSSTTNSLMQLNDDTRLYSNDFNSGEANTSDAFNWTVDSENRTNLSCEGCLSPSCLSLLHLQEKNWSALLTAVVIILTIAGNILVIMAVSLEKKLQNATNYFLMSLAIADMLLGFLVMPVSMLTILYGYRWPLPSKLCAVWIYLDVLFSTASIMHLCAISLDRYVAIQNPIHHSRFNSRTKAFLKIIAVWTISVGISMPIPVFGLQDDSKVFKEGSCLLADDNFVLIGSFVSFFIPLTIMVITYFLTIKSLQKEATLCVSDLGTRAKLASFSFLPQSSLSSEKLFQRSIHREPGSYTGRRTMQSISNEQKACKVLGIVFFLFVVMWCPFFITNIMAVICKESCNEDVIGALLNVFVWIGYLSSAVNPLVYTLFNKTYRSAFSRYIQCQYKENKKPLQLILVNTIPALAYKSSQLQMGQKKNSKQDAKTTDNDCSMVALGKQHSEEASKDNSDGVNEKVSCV
T2 sequence (P23977 whole entry): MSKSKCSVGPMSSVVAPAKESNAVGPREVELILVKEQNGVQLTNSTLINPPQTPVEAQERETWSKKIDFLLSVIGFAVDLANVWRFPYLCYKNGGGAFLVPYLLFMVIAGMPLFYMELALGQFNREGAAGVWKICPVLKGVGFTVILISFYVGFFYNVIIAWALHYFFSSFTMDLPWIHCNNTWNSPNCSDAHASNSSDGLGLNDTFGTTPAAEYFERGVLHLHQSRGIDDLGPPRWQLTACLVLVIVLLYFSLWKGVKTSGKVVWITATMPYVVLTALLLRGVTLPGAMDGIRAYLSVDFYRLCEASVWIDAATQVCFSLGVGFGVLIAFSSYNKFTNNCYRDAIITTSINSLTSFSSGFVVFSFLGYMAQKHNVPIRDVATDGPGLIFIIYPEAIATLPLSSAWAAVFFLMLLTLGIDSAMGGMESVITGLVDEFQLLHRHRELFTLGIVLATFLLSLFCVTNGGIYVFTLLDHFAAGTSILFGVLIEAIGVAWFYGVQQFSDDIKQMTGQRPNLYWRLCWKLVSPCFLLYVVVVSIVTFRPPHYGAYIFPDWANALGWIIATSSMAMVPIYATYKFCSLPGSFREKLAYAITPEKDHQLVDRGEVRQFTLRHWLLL
T4 sequence (P31652 whole entry): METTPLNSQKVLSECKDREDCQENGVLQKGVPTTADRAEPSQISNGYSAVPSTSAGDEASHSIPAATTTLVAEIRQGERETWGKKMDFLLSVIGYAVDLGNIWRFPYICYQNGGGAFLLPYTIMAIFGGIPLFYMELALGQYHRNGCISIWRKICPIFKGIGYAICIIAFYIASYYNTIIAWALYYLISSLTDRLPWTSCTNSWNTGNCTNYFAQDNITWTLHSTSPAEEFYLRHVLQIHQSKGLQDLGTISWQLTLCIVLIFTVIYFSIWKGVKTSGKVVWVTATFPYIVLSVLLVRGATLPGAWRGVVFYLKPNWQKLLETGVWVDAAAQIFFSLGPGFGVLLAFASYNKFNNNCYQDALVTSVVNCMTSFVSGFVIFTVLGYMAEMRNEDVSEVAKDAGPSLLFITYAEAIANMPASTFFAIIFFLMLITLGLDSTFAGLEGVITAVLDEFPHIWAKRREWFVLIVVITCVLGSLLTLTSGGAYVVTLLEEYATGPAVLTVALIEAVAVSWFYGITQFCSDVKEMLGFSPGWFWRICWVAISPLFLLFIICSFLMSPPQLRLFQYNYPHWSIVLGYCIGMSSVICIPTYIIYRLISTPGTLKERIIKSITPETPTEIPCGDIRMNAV
T5 sequence (P41595 whole entry): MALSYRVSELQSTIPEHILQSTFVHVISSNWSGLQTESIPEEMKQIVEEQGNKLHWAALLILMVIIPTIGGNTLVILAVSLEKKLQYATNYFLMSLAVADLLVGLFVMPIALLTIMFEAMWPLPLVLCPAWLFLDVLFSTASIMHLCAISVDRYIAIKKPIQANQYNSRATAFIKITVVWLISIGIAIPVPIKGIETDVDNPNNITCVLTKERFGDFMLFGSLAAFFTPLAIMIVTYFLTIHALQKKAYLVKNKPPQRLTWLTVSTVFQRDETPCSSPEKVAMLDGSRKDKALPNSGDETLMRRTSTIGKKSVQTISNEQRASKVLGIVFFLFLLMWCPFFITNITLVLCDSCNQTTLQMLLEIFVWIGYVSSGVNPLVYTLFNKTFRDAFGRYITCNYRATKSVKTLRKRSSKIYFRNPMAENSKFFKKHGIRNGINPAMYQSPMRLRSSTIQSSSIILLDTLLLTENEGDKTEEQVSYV

For orientation: melting point means the temperature of the solid-liquid transition. Take `C[C@@H](N)CC#Cc1ccccc1` (as salt: hydrochloride) [R-4, (1R)-1-Methyl-4-phenyl-but-3-ynylamine]: the melting point lay within 143 to 144 °C.
The same measure, in the same setting: in the case of `C[C@@H](N)C/C=C/c1ccccc1` (as salt: hydrochloride) [R-6, (1R,3E)-1-Methyl-4-phenyl-but-3-enylamine] it was 172 to 174 °C; in that of `C[C@@H](N)C/C=C\c1ccccc1` (as salt: hydrochloride) [R-8, (1R,3Z)-1-Methyl-4-phenyl-but-3-enylamine], 83 to 84 °C.
On the same count and under the same terms, in the case of `C[C@H](N)CC#Cc1ccccc1` (as salt: hydrochloride) [S-4, (1S)-1-Methyl-4-phenyl-but-3-ynylamine] it was 141 to 142 °C; in that of `C[C@H](N)C/C=C/c1ccccc1` (as salt: hydrochloride) [S-6, (1S,3E)-1-Methyl-4-phenyl-but-3-enylamine], 172 to 173 °C.
Still for that read-out and setting: the result for `C[C@H](N)C/C=C\c1ccccc1` (as salt: hydrochloride) [S-8, (1S,3Z)-1-Methyl-4-phenyl-but-3-enylamine] reads 83 to 84 °C.
`CC(N)/C=C/c1ccccc1` (stereo not drawn) (as salt: hydrochloride) [compound 10, (2E)-1-Methyl-3-phenyl-prop-2-enylamine] came in with a melting point of 151 to 152 °C.
Same read-out and setting: in the case of `CC(N)/C=C\c1ccccc1` (stereo not drawn) (as salt: hydrochloride) [compound 11, (2Z)-1-Methyl-3-phenyl-prop-2-enylamine] it was 149 to 151 °C; in that of `CC(N)CC#Cc1ccccc1` (racemic) (as salt: hydrochloride) [compound 4, 1-Methyl-4-phenyl-but-3-ynylamine], 131 to 132 °C.
Still for that read-out and setting: the result for `CC(N)C/C=C/c1ccccc1` (racemic) (as salt: hydrochloride) [compound 6, (3E)-1-Methyl-4-phenyl-but-3-enylamine] reads 147 to 148 °C; that for `CC(N)C/C=C\c1ccccc1` (racemic) (as salt: hydrochloride) [compound 8, (3Z)-1-Methyl-4-phenyl-but-3-enylamine], 115 to 117 °C.
What is called EC50 is the concentration giving half of the maximal effect. `CC(N)CC#Cc1ccccc1` (racemic) [compound 4, 1-Methyl-4-phenyl-but-3-ynylamine]: the EC50 at 5-HT2C was more than 10000 nM; in data set [1], 997 nM; at human 5-HT2A receptor (setting [4]) it was more than 10000 nM; at human 5-HT2A receptor (read-out: 5-HT2A EC50), more than 10000 nM; in data set [2], 384 ± 110 nM; in data set [3] it was 2980 nM. Also, the EC50 on 5-HT2B was more than 10000 nM. Moreover, in data set [1], the “potency at releasing DA compared to NE” value was 3 fold. Besides, the “selectivity for releasing 5-HT compared to DA, given as fold more potent at the DAT” value in data set [1] is recorded as 2.6 fold.
As usually defined, the Emax is the size of the effect at its maximum, as opposed to the concentration needed. Turning to `CC(N)C/C=C/c1ccccc1` (racemic) [compound 6, (3E)-1-Methyl-4-phenyl-but-3-enylamine], the 50% effective concentration (EC50) on 5-HT2C was more than 10000 nM; in data set [1], 272 ± 44 nM; on human 5-HT2A receptor (setting [4]), 5620 ± 1700 nM; in data set [2] it was 54 ± 8 nM; in data set [3] it was 239 ± 59 nM; at 5-HT2B it was more than 10000 nM. Besides, at human 5-HT2A receptor, the “fold reduction in potency at 5-HT2A compared to 8” value is listed as 3 fold. The Emax on human 5-HT2A receptor (HEK293) is approximately 80%.
Turning to `CC(N)C/C=C\c1ccccc1` (racemic) [compound 8, (3Z)-1-Methyl-4-phenyl-but-3-enylamine], the Emax at 10 µM on 5-HT2C (at 10 μM, read-out: 5-HT2C activity relative to the control 5-HT EMAX) was less than 50%. Besides, the 50% effective concentration (EC50) at 5-HT2C is more than 10000 nM; in data set [1] it was 900 ± 100 nM; on human 5-HT2A receptor (setting [4]), 1860 nM; in data set [2] it was 646 nM; in data set [3] it was 621 ± 190 nM; at 5-HT2B, more than 10000 nM. For the same compound, on human 5-HT2A receptor (HEK293), the maximal effect (Emax) was 90%. Also, in data set [2], the “potency for releasing 5-HT relative to DA (SERT/DAT selectivity)” value turned out to be 1.4 fold.
Consider `C[C@@H](N)CC#Cc1ccccc1` [R-4, (1R)-1-Methyl-4-phenyl-but-3-ynylamine], for which the EC50 on 5-HT2C is more than 10000 nM; in data set [1] it was 660 ± 190 nM; in data set [2], 288 nM; in data set [3], 496 nM; at 5-HT2B, more than 10000 nM. In addition, the “selectivity for releasing 5-HT compared to DA, given as fold more potent at the DAT” value in data set [1] is 2.3 fold.
On to `C[C@@H](N)C/C=C/c1ccccc1` [R-6, (1R,3E)-1-Methyl-4-phenyl-but-3-enylamine], for which the EC50 is more than 10000 nM at 5-HT2C; 540 nM in data set [1]; 109 ± 29 nM in data set [2]; 279 ± 24 nM in data set [3]; more than 10000 nM on 5-HT2B.
